The structures appear in SMILES notation. Marks after values point to notes of the source that are not given here.

We go through one compound from publication PMC11881160 (International Journal of Nanomedicine, 2025).

Data set [1] can be described thus: In vitro dissolution test. The class given is physicochemical. The following applies: 100 rpm, n=3.
Data set [2] in a line: Pharmacokinetic study of LUT and LUT-NS-LP in rats. It is filed as in vivo, Sprague-Dawley (SD) rats.
For data set [3] the following is noted: PBPK model input; ATV value marked (acid); ref Drugbank; cited from earlier work.
For data set [4] the following is noted: stated in the discussion without reference; species not given; cited from earlier work.
Data set [5] relates to CYP450s of Rat Liver Microsomes (RLMs). Briefly: In vitro CYP450 metabolism of ATV and inhibition by LUT in rat liver microsomes. The following applies: CYP450s mixture of RLMs, Lineweaver-Burk plots. A general note: Liver microsomes are vesicles of endoplasmic reticulum, rich in cytochrome P450 enzymes.
Setting [6] is: male, Sprague-Dawley, rat, plasma, po, 200 mg/kg.

In the case of `O=c1cc(-c2ccc(O)c(O)c2)oc2cc(O)cc(O)c12` [LUT, Luteolin], the Drug release in data set [1] (pH 1.2 buffer containing 0.05% Tween 80, after 120 min, 37°C) was determined as 36.58 ± 0.99%. The compound also showed a Drug release in data set [1] (pH 6.8 phosphate buffer containing 0.05% Tween 80, 37°C) of 59.10 ± 3.13%. In data set [2] (setting [6]), the AUC(0-inf) came out at 4230 ± 1510 ng·h/mL, the AUC(0-t) worked out at 3840 ± 1390 ng·h/mL, the CL/F was 880 mL/min/kg and the concentration peaked (Cmax) at 1140 ± 320 ng/mL. In data set [2] (setting [6]), the MRT inf worked out at 4.02 ± 1.68 h, the MRT last was found to be 2.88 ± 0.96 h, the Tmax was found to be 0.92 ± 0.59 h and the Vd/F turned out to be 178 ± 85.1 L/kg. The compound further had a half-life in data set [2] (setting [6]) of 2.6 ± 1.52 h. Further, the “F (bioavailability)” value in data set [2] (relative to LUT, rats, oral 200 mg/kg) is recorded as 1 fold. Besides, the pKa in data set [3] is recorded as 6.57^a. Further, in data set [4], the Oral absolute bioavailability entry is “under 5%”. For the same compound, in data set [5], the “Form of inhibition of ATV metabolism by LUT” value is “non-competitive”.

In general, AUC(0-inf) refers to the area under the concentration-time curve extrapolated to infinity. Low readings indicate low exposure, high ones high exposure. As a reminder, the AUC(0-t) is the area under the concentration-time curve up to a stated or last time point. What is called CL/F is the apparent clearance, not corrected for the fraction that reaches the circulation. As usually defined, the Cmax is the peak of the concentration-time curve. Usually MRT inf stands for the average time that molecules of a dose stay in the body. The term MRT last denotes a mean duration of stay, worked out from the concentration-time curve. For orientation: Tmax means the time from dosing to the highest level. One may read the Vd/F as the apparent distribution volume after extravascular dosing. As a reminder, the half-life is the time needed for the level to fall by half in the phase considered. Read a high half-life as slow loss.
